Assay results reported in patent US8822500B2, “Tyrosine kinase inhibitors” (Chembridge Corporation, priority 2008, dated 2014).
Read-outs that look alike come from different tables or passages of the source.

How the values were obtained:
[1] = biological target: ALK (Homo sapiens (Human), UniProt Q9UM73); test: In vitro kinase activity assay (LANCE TR-FRET); assay type: biochemical;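 note: kinase reactions with ATP and a poly-GT peptide substrate, phosphorylated product read by time-resolved FRET, 11-point curve from 10^−11 to 10^−5 M, DMSO as negative control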
Chain of ALK (Q9UM73 19-1620): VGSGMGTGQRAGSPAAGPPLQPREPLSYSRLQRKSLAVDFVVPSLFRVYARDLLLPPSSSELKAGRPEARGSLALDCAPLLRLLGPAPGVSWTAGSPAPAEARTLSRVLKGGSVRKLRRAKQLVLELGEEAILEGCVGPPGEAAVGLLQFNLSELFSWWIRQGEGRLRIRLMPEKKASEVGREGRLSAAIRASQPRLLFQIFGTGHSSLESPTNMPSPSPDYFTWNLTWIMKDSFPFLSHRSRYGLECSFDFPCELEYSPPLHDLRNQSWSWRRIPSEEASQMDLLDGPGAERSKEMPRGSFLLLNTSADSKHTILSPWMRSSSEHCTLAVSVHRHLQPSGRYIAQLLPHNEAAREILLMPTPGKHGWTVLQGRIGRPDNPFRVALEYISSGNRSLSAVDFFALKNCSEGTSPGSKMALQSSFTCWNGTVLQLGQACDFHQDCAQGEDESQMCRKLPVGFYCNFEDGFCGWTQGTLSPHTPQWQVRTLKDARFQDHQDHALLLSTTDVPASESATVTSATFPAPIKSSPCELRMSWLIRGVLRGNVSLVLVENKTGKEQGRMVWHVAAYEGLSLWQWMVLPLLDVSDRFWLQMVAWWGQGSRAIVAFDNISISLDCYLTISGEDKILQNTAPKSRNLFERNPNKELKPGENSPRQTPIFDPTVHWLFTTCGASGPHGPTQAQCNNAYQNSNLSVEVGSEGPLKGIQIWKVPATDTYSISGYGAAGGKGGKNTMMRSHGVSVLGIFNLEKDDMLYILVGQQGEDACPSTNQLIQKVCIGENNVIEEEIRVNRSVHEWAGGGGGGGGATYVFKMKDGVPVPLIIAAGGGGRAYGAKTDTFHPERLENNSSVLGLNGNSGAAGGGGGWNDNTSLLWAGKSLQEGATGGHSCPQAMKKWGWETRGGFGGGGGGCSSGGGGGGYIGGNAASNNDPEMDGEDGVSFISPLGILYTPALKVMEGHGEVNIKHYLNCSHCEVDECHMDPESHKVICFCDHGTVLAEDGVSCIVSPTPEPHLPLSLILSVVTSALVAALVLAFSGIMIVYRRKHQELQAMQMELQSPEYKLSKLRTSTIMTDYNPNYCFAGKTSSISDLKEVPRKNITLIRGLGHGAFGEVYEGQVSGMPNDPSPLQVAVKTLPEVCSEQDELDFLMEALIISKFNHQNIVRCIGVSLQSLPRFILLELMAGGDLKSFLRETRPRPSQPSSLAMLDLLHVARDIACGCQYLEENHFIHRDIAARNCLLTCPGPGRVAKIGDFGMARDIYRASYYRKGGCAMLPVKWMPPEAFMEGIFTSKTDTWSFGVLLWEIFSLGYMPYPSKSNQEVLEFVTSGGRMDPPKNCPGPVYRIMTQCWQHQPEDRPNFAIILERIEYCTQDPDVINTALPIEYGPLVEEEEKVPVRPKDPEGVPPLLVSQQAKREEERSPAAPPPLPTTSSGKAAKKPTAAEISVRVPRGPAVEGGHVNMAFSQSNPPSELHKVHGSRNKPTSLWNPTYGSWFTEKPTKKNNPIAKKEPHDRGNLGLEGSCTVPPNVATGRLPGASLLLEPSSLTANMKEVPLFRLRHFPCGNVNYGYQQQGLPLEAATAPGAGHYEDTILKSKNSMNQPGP

[2] = tested on: U937 lymphoma cells; test: Cellular assay, 3 day cell viability (WST-1); assay type: cell-based; conditions: Homo sapiens, U-937, 72 h, 3 days, WST-1
[3] = biological target: INSR (Homo sapiens (Human), UniProt P06213); test: In vitro kinase activity assay (LANCE TR-FRET); assay type: biochemical
[4] = tested on: K299 lymphoma cells; test: Cellular assay, 3 day cell viability (WST-1); assay type: cell-based; conditions: 3 days
[5] = microsomes, 0.5 μM, pH 7.4
[6] = Rat pharmacokinetics / bioavailability; assay type: in vivo
[7] = in vitro; conditions: human, microsomes; for microsomal CLint at 0.5 μM: pH 7.4, Human LM-P1 CL (ul/min/mg); for half-life at 0.5 μM: pH 7.4, Human LM-P1 Half-life (min)
[8] = Caco-2 cell permeation study; assay type: in vitro ADME; conditions: human, Caco-2, 10 μM;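 note: Caco-2 monolayers grown for 21–28 days with integrity confirmed by TEER, apical buffer HBSS with MES, basolateral buffer HBSS with HEPES, compound levels quantified by LC/MS/MS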
[9] = Metabolic stability, Phase I microsome reactions; conditions: rat, microsomes;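 for Rat LM-P1 Half-life (min): compound at 0.5 µM incubated with rat liver microsomes (1.0 mg/ml protein) plus NADPH regenerating system at 37 °C, sampled up to 60 min, remaining parent quantified by LC-MS/MS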
[10] = biological target: TrkB (Homo sapiens (Human), UniProt Q16620); test: In vitro kinase activity assay (LANCE TR-FRET); assay type: biochemical
[11] = biological target: ROS (Homo sapiens (Human), UniProt P08922); test: In vitro kinase activity assay (LANCE TR-FRET); assay type: biochemical; conditions: read-out: ROS (nM) IC50
[12] = Dog pharmacokinetics
[13] = tested on: NPM-ALK R1275Q BaF3 cells; test: BaF3 stables cell viability (WST-1); conditions: Mus musculus, BaF3, read-out: BaF3 Stables IC50 nM R1275Q
[14] = Mouse pharmacokinetics; conditions: for AUC: plasma, 10 mg/kg
[15] = tested on: SUDHL-1 lymphoma cells; test: Cellular assay, 3 day cell viability (WST-1); assay type: cell-based; conditions: 3 days, WST-1
[16] = Guinea pig pharmacokinetics; conditions: for AUC(0-t): plasma, 10 mg/kg
[17] = tested on: NB-1 neuroblastoma cells; test: Cellular assay, 3 day cell viability (WST-1); assay type: cell-based; conditions: 72 h, 3 days, WST-1, read-out: NB-1 IC50
[18] = tested on: FLT3-ITD BaF3 cells; test: BaF3 stables cell viability (WST-1); conditions: Mus musculus, BaF3, read-out: BaF3 Stables IC50 nM FLT3-ITD
[19] = biological target: hERG potassium channel (Homo sapiens (Human), UniProt Q12809); test: hERG potassium channel current, automated patch clamp (PatchXpress 7000A); conditions: human; for inhibition at 5 min, 30 µM: 30 μM (low solubility at this concentration);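 for all read-outs here: Four-point series of 0.3, 3, 10 and 30 µM, two cells recorded per concentration, 5 min exposure at each level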
Chain of hERG potassium channel (Q12809 whole entry): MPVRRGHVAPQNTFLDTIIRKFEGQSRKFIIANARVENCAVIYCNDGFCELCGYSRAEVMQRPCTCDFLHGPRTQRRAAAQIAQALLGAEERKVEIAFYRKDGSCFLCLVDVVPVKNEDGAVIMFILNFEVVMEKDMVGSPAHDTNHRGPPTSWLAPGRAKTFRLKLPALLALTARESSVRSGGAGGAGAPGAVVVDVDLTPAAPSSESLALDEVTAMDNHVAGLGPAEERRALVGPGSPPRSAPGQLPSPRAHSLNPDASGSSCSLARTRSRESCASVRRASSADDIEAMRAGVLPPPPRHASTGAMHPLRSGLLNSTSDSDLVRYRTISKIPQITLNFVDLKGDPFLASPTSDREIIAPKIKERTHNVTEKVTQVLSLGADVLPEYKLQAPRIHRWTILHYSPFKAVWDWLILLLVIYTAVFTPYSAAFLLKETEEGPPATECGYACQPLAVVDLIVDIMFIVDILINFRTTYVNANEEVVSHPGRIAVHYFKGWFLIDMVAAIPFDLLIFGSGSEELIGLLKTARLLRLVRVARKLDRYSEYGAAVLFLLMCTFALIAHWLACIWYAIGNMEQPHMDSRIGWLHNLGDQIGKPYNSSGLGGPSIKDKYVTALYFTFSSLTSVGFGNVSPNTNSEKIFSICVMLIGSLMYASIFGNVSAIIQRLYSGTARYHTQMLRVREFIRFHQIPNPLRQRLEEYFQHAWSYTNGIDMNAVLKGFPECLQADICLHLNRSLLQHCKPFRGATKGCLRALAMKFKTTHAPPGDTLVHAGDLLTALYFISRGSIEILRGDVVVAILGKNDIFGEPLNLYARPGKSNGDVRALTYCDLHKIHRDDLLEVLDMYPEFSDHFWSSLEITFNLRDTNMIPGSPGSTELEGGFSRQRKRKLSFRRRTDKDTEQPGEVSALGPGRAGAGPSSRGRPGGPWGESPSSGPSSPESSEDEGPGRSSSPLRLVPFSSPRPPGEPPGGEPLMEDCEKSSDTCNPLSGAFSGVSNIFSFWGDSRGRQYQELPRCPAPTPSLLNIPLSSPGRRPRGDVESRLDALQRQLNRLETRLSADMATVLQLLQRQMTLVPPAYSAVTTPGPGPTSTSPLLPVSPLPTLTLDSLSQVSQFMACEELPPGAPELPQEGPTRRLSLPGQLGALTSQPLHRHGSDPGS

[20] = biological target: hERG (human ether-a-go-go related gene) potassium channel (Homo sapiens (Human), UniProt Q12809); test: as above
Chain of hERG (human ether-a-go-go related gene) potassium channel (Q12809 whole entry): as above

[21] = Metabolic stability, Phase I microsome reactions; assay type: in vitro ADME, mouse; conditions: mouse, pH 7.4, Phase I only, 1.0 mg/ml microsomes, read-out: Mouse LM-P1 Half-life;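 for Rat LM-P1 Half-life (min): compound at 0.5 µM incubated with rat liver microsomes (1.0 mg/ml protein) plus NADPH regenerating system at 37 °C, sampled up to 60 min, remaining parent quantified by LC-MS/MS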
[22] = in vitro; conditions: rat, microsomes; for half-life at 0.5 μM: pH 7.4; for microsomal CLint at 0.5 μM: pH 7.4, Rat LM-P1 CL (ul/min/mg)
[23] = biological target: RET (Homo sapiens (Human), UniProt P07949); test: In vitro kinase activity assay (LANCE TR-FRET); assay type: biochemical; conditions: read-out: RET (nM) IC50
[24] = biological target: TrkA (Homo sapiens (Human), UniProt P04629); test: In vitro kinase activity assay (LANCE TR-FRET); assay type: biochemical;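 note: kinase reaction with poly-GT peptide substrate and ATP, phosphorylated product quantified by time-resolved FRET, eleven-point dose curves from 10^−11 to 10^−5 M in triplicate, DMSO as negative control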
Chain of TrkA (P04629 33-796): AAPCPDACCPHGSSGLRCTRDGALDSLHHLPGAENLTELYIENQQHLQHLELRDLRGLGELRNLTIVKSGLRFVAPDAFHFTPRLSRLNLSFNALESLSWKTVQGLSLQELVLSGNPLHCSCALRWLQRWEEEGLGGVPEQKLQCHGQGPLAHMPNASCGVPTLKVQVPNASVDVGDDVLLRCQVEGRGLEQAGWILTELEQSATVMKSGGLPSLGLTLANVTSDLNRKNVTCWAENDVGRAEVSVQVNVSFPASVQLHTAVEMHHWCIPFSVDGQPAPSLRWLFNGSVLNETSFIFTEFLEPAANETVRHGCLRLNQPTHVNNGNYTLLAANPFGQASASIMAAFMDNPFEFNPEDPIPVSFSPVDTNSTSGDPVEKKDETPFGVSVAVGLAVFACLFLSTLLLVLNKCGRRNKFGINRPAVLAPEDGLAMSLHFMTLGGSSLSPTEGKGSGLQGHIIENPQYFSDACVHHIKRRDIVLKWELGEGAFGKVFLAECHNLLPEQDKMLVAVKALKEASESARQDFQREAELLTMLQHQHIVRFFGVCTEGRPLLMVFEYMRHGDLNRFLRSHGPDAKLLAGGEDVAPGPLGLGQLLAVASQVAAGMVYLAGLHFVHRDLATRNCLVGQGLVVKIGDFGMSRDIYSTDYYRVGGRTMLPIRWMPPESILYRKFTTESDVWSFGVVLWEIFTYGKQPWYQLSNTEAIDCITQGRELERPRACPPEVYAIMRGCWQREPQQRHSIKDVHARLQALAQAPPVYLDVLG

[25] = biological target: IGF1R (Homo sapiens (Human), UniProt P08069); test: In vitro kinase activity assay (LANCE TR-FRET); assay type: biochemical
[26] = biological target: TrkC (Homo sapiens (Human), UniProt Q16288); test: In vitro kinase activity assay (LANCE TR-FRET); assay type: biochemical; conditions: read-out: GTx-TrKC IC50
[27] = tested on: EML4-ALK R1275Q BaF3 cells; test: BaF3 stables cell viability (WST-1); conditions: read-out: BaF3 Stables IC50 nM R1275Q; EML4-ALK construct
[28] = tested on: EML4-ALK C1156Y BaF3 cells; test: BaF3 stables cell viability (WST-1); conditions: read-out: BaF3 Stables IC50 nM C1156Y; EML4-ALK construct
[29] = tested on: EML4-ALK BaF3 cells; test: BaF3 stables cell viability (WST-1); conditions: read-out: BaF3 Stables IC50 nM EML4-ALK; EML4-ALK parent construct
[30] = microsomes, 0.5 μM, pH 7.4; remark: listed apart in the source
[31] = male, Sprague-Dawley, plasma, iv, 10 mg/kg I.V.
[32] = male, Sprague-Dawley, plasma, po, 10 mg/kg P.O.
[33] = Individual Data Points (% Inhibition)
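Throughout, for Human LM-P1 Half-life (min): liver microsomes at 1.0 mg/ml with NADPH regenerating system, 37 °C, sampled at 0, 5, 10, 30 and 60 min, parent compound quantified by LC-MS/MS.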

Molecule: COc1cc([C@@H]2c3cc4c(cc3[C@H](O)[C@H]3COC(=O)[C@@H]23)OCO4)cc(OC)c1OC (racemic) [PPP, reference compound]
- IC50 ([1]; read-out: ALK IC50): > 10000 nM
- IC50 ([1]; read-out: GTx-ALK IC50): > 10000 nM
- IC50 ([2]; read-out: GTx-U937 IC50): 138 nM
- IC50 ([2]; read-out: U937 IC50): 138 nM
- IC50 ([3]; read-out: GTx-IRK IC50): > 10000 nM
- IC50 ([4]; 72 h, read-out: GTx-K299 IC50): 196 nM
- IC50 ([4]; 72 h, read-out: K299 IC50): 196 nM

Molecule: C[C@@H](Cc1c(F)c(F)cc(F)c1F)Nc1cc[nH]c(=O)c1-c1nc2cc3c(cc2[nH]1)CN(CCN(C)C)C3=O [Compound 1, (S)-6-(2-(Dimethylamino)ethyl)-2-(2-oxo-4-((1-(2,3,5,6-tetrafluorophenyl)propan-2-yl)amino)-1,2-dihydropyridin-3-yl)-6,7-dihydroimidazo[4,5-f]isoindol-5(3H)-one]
- Human LM-P1 Half-life [5]: >2 h
- IV_AUC0-1440 Rat 10 mpk ([6]; 10 mg/kg I.V.): 329 µg·min/mL
- PO_AUC0-1440 Rat 10 mpk ([6]; 10 mg/kg P.O.): 0.943 µg·min/mL
- MRT [6, 31]: 22.7 h
- clearance [6, 31]: 25.5 mL/min/kg
- half-life [6, 31]: 22.1 h
- Vd ([6]; male, Sprague-Dawley, plasma, iv, 10 mg/kg I.V., read-out: Vss): 23.9 L/kg
- Cmax [6, 32]: 2.21 ng/mL
- Tmax [6, 32]: 1.88 h
- bioavailability ([6]; male, Sprague-Dawley, plasma, po, 10 mg/kg P.O., read-out: Rat F %): 0.287%
- microsomal CLint at 0.5 μM [7]: 5.87 µL/min/mg
- half-life at 0.5 μM [7]: 1.97 h
- Papp A→B at 2 h, 10 μM ([8]; apical pH 6.5, 2 h): < 0.2 ×10⁻⁶ cm/s
- Papp B→A at 2 h, 10 μM ([8]; basolateral pH 7.4, 2 h): 19.9 ×10⁻⁶ cm/s
- microsomal CLint at 0.5 μM ([9]; pH 7.4): 100 µL/min/mg
- half-life at 0.5 μM ([9]; pH 7.4, Rat LM-P1 Half-life (min), Phase I only, 0.5 μM, 1.0 mg/ml microsomes): 6.99 min
- IC50 ([10]; read-out: TrkB (nM) IC50): 2.06 nM
- IC50 [11]: 0.205 nM
- F ([12]; 5 mg/kg PO): 12%
- AUC(0-t) ([12]; plasma, iv, 1 mg/kg): 483 ng·h/mL
- AUC ([12]; plasma, po, 5 mg/kg): 287 ng·h/mL
- IC50 [13]: 279 ± 21 nM
- F ([14]; 10 mg/kg SC): 30%
- AUC ([14]; iv): 1770 ng·h/mL
- AUC ([14]; sc): 522 ng·h/mL
- IC50 ([15]; read-out: SUDHL-1 IC50): 22 nM
- IC50 ([2]; read-out: U937 IC50): 1600 nM
- F ([16]; 10 mg/kg PO): 1%
- AUC(0-t) ([16]; iv): 3570 ng·h/mL
- AUC(0-t) ([16]; po): 37.2 ng·h/mL
- IC50 [17]: 177 nM
- IC50 [18]: > 3 nM
- inhibition at 5 min, 0.3 µM [19, 33]: 5.9%
- inhibition at 5 min, 3 µM [19, 33]: 43.6%
- inhibition at 5 min, 10 µM [19, 33]: 59.4%
- inhibition at 5 min, 30 µM [19, 33]: 71.1%
- inhibition at 5 min, 0.3 µM ([19]; Mean % hERG Inhibition): 5.5%
- inhibition at 5 min, 3 µM ([19]; Mean % hERG Inhibition): 39.9%
- inhibition at 5 min, 10 µM ([19]; Mean % hERG Inhibition): 54.4%
- inhibition at 5 min, 30 µM ([19]; Mean % hERG Inhibition): 66.9%
- IC50 [20]: 6250 nM
- Individual Data Points (% Inhibition) ([20]; 0.3 μM): 5.0%
- Individual Data Points (% Inhibition) ([20]; 3 μM): 36.3%
- Individual Data Points (% Inhibition) ([20]; 10 μM): 49.4%
- Individual Data Points (% Inhibition) ([20]; 30 μM (low solubility at this concentration)): 62.7%
- half-life at 0.5 μM [21]: 0.14 h
- half-life at 0.5 μM [22]: 8.43 min
- microsomal CLint at 0.5 μM [22]: 82.2 µL/min/mg
- IC50 [23]: 3.53 nM
- IC50 ([4]; 72 h, read-out: K299 IC50): 76 nM
- IC50 ([4]; read-out: K299 IC50): 73 nM

Molecule: C[C@@H](Cc1cc(F)cc(F)c1F)Nc1cc[nH]c(=O)c1-c1nc2cc3c(cc2[nH]1)CN(CCN(C)C)C3=O [Compound 31]
- microsomal CLint at 0.5 μM [7]: < 5.8 µL/min/mg
- half-life at 0.5 μM [7]: > 2 h
- IC50 ([1]; read-out: ALK IC50): 1 nM
- IC50 ([24]; read-out: TrKA IC50): 4 nM
- IC50 ([2]; read-out: U937 IC50): 2200 nM
- IC50 ([3]; read-out: IRK IC50): 578 nM
- IC50 [25]: 299 nM
- half-life at 0.5 μM ([21]; liver microsomes): 0.484 h
- half-life at 0.5 μM [22]: 8.7 min
- microsomal CLint at 0.5 μM [22]: 79.9 µL/min/mg
- IC50 ([4]; 72 h, read-out: K299 IC50): 154 nM

Molecule: Cc1ccc(F)cc1CC(C)Nc1cc[nH]c(=O)c1-c1nc2cc3c(cc2[nH]1)CN(C)C3=O (centres unmarked) [Compound 44, 2-(4-(1-(5-Fluoro-2-methylphenyl)propan-2-ylamino)-2-oxo-1,2-dihydropyridin-3-yl)-6-methyl-6,7-dihydroimidazo[4,5-f]isoindol-5(1H)-one]
- IC50 [26]: 1 nM
- IC50 ([10]; read-out: GTx-TrKB IC50): 4 nM
- IC50 ([1]; read-out: GTx-ALK IC50): 37 nM
- IC50 ([24]; read-out: GTx-TrKA IC50): 4 nM
- IC50 ([15]; Homo sapiens, SU-DHL-1, 72 h, read-out: GTx-SUDHL-1 IC50): 829 nM
- IC50 ([2]; read-out: GTx-U937 IC50): > 3000 nM
- IC50 ([4]; 72 h, read-out: GTx-K299 IC50): 798 nM

Molecule: (S)-6-(1-Methylpiperidin-4-yl)-2-(2-oxo-4-(1-(2,3,5,6-tetrafluorophenyl)propan-2-ylamino)-1,2-dihydropyridin-3-yl)-6,7-dihydroimidazo[4,5-f]isoindol-5(3H)-one [Compound 4]
- IC50 ([1]; read-out: ALK (nM) IC50): 9.81 nM
- IC50 ([1]; read-out: GTx-ALK IC50): 10 nM
- IC50 ([24]; read-out: TrkA (nM) IC50): 5 nM
- IC50 [27]: 288 ± 20 nM
- IC50 [28]: 283 ± 43 nM
- IC50 [29]: 143 ± 6 nM
- Rat LM-P1 Half-life [30]: >2 h
